Measured values as given in patent US20160243237A1, “EMULSIONS OF PERFLUOROCARBONS” (TENAX THERAPEUTICS, INC., priority 2009, published 2016).
“Also recorded” adds a separate entry of the source.

How the values were obtained:
[1] = Mechanical stability of the emulsion with tonicity adjusters; type: physicochemical; conditions: tonicity adjuster compared with sodium chloride
Description: Glycerin USP is used in the formulation to adjust the tonicity of the emulsion. For intravenous infusion, it is important that the tonicity of the emulsion be in the same physiological range as blood tonicity. Glycerin was chosen because it has a long history of use in parenteral emulsions and because it is not an ionizable species that could contribute to coalescence of the emulsion particles by disruption of the charged layer (zeta potential) surrounding the particles.

monkeys = assay: Single-dose GLP toxicity study, pulmonary hyperinflation; type: in vivo; conditions: 60% and 20% w/v, compared with PFOB
Description: (§1) Perfluoro(tert-butylcyclohexane) at both 60% and 20% w/v concentrations has been tested in controlled, single-dose Good Laboratory Practice (GLP) toxicity studies in rats and monkeys. […] Nevertheless, perfluoro(tert-butylcyclohexane) represents a better balance between persistence and the tendency to produce hyperinflated, non-collapsible lungs than what is seen with PFOB and perfluorodecalin.

[2] = Solubility of FtBu in water and solvents; type: physicochemical; conditions: room temperature
Description: FtBu is most soluble in halogenated solvents such as isoflurane. Therefore, FtBu needs to be formulated as an aqueous emulsion for intravenous administration.

rats and monkeys = assay: Single-dose GLP toxicity studies, absorption and persistence; type: in vivo
Description: as §1

[3] = Gas carrying capacity (oxygen, CO2); type: physicochemical; conditions: at body temperature
Procedure: Perfluoro(tert-butylcyclohexane) can carry about 43 mL of oxygen per 100 mL of PFC, and 196 mL of CO2 per 100 mL of PFC at body temperature.
FtBu can dissolve and release large amounts of gases, including the blood gases oxygen and carbon dioxide. […] As such, no sinusoidal release curve of oxygen is encountered. The transport and release of oxygen and other gases by FtBu is a simple passive process, the quantity of gas dissolved is linearly related to its partial pressure, essentially following Henry's Law.
In the body the PFC emulsion is capable of uploading and unloading oxygen and CO2 more efficiently than blood, (at a FtBu concentration of 60% w/v, Oxycyte® can dissolve 3-4 times the amount of oxygen than human hemoglobin can off-load under normal physiological conditions) and this process is concentration-gradient mediated (Henry's Law). Because the median size of the PFC droplets is approximately 40-50 times smaller than an erythrocyte, Oxycyte® is able to oxygenate tissues with narrowed capillaries, as occurs in brain contusions. After about 10 hours, half of an intravenous dose of 3 mL/kg remains in the circulation. PFCs are eliminated from the blood when macrophages scavenge the lipid particles. This is quite similar to how Intralipid® is transported from the blood stream. PFCs are deposited in the liver and spleen. […]

skin tissue = assay: Measuring oxygen tension in tissue with fluorescent marker (Example 3); type: in vivo; conditions: skin area treated with PFC
Procedure: A material which binds oxygen (fluorescent marker) is injected into skin tissue. The combination is fluorescent and the more oxygen that is present, the stronger the fluorescent signal. (representing the oxygen tension in the tissue). First it is determined that fluorescence chemistry is unaffected by the PFCs and poloxamers. Then as a control, the fluorescent marker is injected into the skin, and oxygen tension is obtained. Finally, the same area is treated with a PFC, PFC emulsion or a PFC gel and oxygen tension is again obtained.

[4] = Physical properties of perfluoro(tert-butylcyclohexane); type: physicochemical
Description: Physical properties of perfluoro(tert-butylcyclohexane) are as follows: […]

Row | mechanical stability of the emulsion [1] | solubility in 2,2,4-trimethylpentane(isooctane) [2] | solubility in halogenated solvents such as isoflurane [2] | solubility in water [2] | CO2 carried [3] | oxygen carried [3] | Density [4] [g/mL] | Kinematic Viscosity [4] [cP] | Vapor Pressure @ 25° C. ([4]; 25° C.) [mmHg] | Vapor Pressure @ 37° C. ([4]; 37° C.) [mmHg] | Structure (SMILES) | degree of pulmonary hyperinflation (monkeys) | persistence in liver and spleen (RES half-life) (rats and monkeys; compared with PFOB) | absorption in the body (rats and monkeys; single dose) | local oxygen tension in the tissue (skin tissue)
1 | superior to sodium chloride |  |  |  |  |  |  |  |  |  | OCC(O)CO [glycerin, Glycerin] |  |  |  | 
2 | superior to sodium chloride |  |  |  |  |  |  |  |  |  | OC[C@@H](O)[C@@H](O)[C@H](O)[C@H](O)CO [mannitol] |  |  |  | 
3 |  | only minimal solubility | most soluble | virtually insoluble in water | ~196 mL of CO2 per 100 mL of PFC | about 43 mL of oxygen per 100 mL of PFC | 1.97 | 5.378 | 3.8 | 4.4 | FC(F)(F)C(C(F)(F)F)(C(F)(F)F)C1(F)C(F)(F)C(F)(F)C(F)(F)C(F)(F)C1(F)F [perfluoro(tert-butylcyclohexane), 1-(1,1-bis(trifluoromethyl)-2,2,2-trifluoroethyl)-1,2,2,3,3,4,4,5,5,6,6-undecafluorocyclohexane] | significantly less than that seen in monkeys treated with PFOB; also recorded: correspondingly lesser propensity to cause pulmonary hyperinflation | somewhat longer than what has been reported for PFOB; also recorded: somewhat longer than that of the benchmark perfluorocarbon, PFOB | generally comparable to what has been reported for other PFCs | substantially increases local oxygen tension
